# Results as given in patent publication US5084082A, “Soybean plants with dominant selectable trait for herbicide resistance” (priority 1990, dated 1992).
# Assays:
# [1] = system: Williams 82 (wild type soybean cultivar); assay: Pilot study in modified Hydropot Solo hydroponic system; assay type: in vivo; settings: Williams 82, 100 ppb in nutrient solution, 10 days after planting
# Method: (§1) A pilot study was conducted to determine whether the modified Hydropot Solo system could be used to consistently differentiate between previously isolated (Sebastian and Chaleff, 1987. Crop Science 27:948-952) SU-tolerant mutants and wild type soybean plants. Four Hydropot Solo units were prepared with each planting tank containing a lower layer of pea gravel and an upper layer of fine vermiculite as described previously. Each reservoir was filled with tap water supplemented with 1/4 tablespoon of Miracle Grow soluble fertilizer per gallon. One hydroponic unit served as an untreated control while the nutrient solution of each of the other three was supplemented with either 100, 300, or 1000 ppb of an experimental sulfonylurea herbicide Compound 12. Ten seeds each of Williams 82 (wild type soybean cultivar), mutant 1-184A, mutant 1-183A, mutant 1-166A, and mutant 1-126A were then planted 2 cm deep into the vermiculite layer of each of the four hydroponic units. The programmable timer was set to irrigate the planting tanks for four 30-minute intervals during each 24-hour period. […] Differences between mutant and wild type became less dramatic as the herbicide concentration increased to 1000 ppb. […] These observations confirmed that the modified Hydropot system could be used to select for herbicide tolerance. […]
# [2] = system: SU-tolerant mutants 1-184A, 1-183A, 1-166A, 1-126A; assay: as above; assay type: in vivo, soybean
# Method: as §1
# [3] = system: mutants that have heritable sulfonylurea tolerance; assay: Pilot studies, threshold concentration in hydroponic system; assay type: in vivo, soybean; settings: sulfonylurea tolerant mutants, 100 mg/L used to irrigate the hydroponic system
# Description: (§2) The same sulfonylurea concentrations would select only highly resistant plants.
# [4] = system: wild type soybeans; assay: as above; assay type: in vivo, soybean; settings: 100 mg/L used to irrigate the hydroponic system
# Description: as §2
# [5] = system: Williams 82; assay: Test B postemergence cross resistance test; assay type: in vivo, soybean; settings: Glycine max, post-emergence, read-out: mean % injury
# Description: (§3) In the second postemergence test, six true-breeding resistant mutant lines (W4, W17, W19, W20, W23, and W28) were compared to Williams 82 for cross resistance to a broad range of ALS inhibitors including eight sulfonylureas and three imidazolinones. Two seeds were planted in each 10 cm pot and allowed to grow to the second trifoliolate stage. Pots were not thinned back if both plants were at the proper stage. For each of 11 herbicides, two rates (Table VII) were selected based on previous data: the low rate was expected to cause significant injury (but not death) to Williams 82 and the high rate was expected to severely injure or kill Williams 82. All but a few line x rate treatments were replicated twice.
# (§4) In both postemergence tests, plants were returned to the greenhouse after treatment and provided with ample light, moisture, and nutrients to support healthy plant growth. Two to three ratings per pot were recorded over a three-week period and averaged to obtain a single value for each pot For each herbicide, analysis of variance on injury ratings was performed separately. Fisher's least significant difference (LSD) was used to determine the significance of line mean differences at each herbicide rate using the 95% level of confidence. […]
# [6] = system: mutant line W17; assay: Test B postemergence cross resistance test; assay type: in vivo, soybean; settings: Glycine max, post-emergence
# Description: as §3, §4
# [7] = system: mutant line W19; assay: Test B postemergence cross resistance test; assay type: in vivo, soybean; settings: Glycine max, post-emergence
# Description: as §3, §4
# [8] = system: mutant line W23; assay: Test B postemergence cross resistance test; assay type: in vivo, soybean; settings: Glycine max, post-emergence
# Description: as §3, §4
# [9] = system: mutant line W28; assay: Test B postemergence cross resistance test; assay type: in vivo, soybean; settings: Glycine max, post-emergence
# Description: as §3, §4
# [10] = system: mutant line W4; assay: Test B postemergence cross resistance test; assay type: in vivo, soybean; settings: Glycine max, post-emergence
# Description: as §3, §4
# [11] = system: mutant line W20; assay: Test B postemergence cross resistance test; assay type: in vivo, soybean; settings: Glycine max, post-emergence
# Description: as §3
# In both postemergence tests, plants were returned to the greenhouse after treatment and provided with ample light, moisture, and nutrients to support healthy plant growth. Two to three ratings per pot were recorded over a three-week period and averaged to obtain a single value for each pot For each herbicide, analysis of variance on injury ratings was performed separately. Fisher's least significant difference (LSD) was used to determine the significance of line mean differences at each herbicide rate using the 95% level of confidence.
# [12] = system: ALS of W20; assay: In vitro ALS activity of leaf tissue in the presence of Compounds 8 and 9; assay type: biochemical, soybean; settings: W20, 10 ppm
# Description: (§5) At approximately 1 month after transplantation, some of the selections appeared much healthier than others. For example, W4-4, W4-6, W6-1, W6-2, W6-4, W23-10, and W23-11 recovered very well from the seed soak treatment with Compound 8. These plants were suspected of having a higher level of ALS resistance to Compound 8 than did the parental material from which they were derived. The applicant was also interested to see if any of these selections were cross resistant to an imidazolinone herbicide such as Compound 9. To test this hypothesis, leaf tissue of the one-month-old M2 plants was sampled and assayed in vitro for ALS activity in the presence of Compound 8 and Compound 9. The ALS assay procedure was essentially identical to the previously described ALS assay except that the herbicide concentrations tested were 100 ppb Compound 8 and 10 ppm Compound 9. Williams and mutant W20 soybean plants were also assayed as control genotypes for comparison. Williams contains no genes conferring the ALS-based sulfonylurea resistance while W20 is homozygous for a single mutation conferring ALS-based sulfonylurea resistance.
# (§6) Acetolactate synthase (ALS) was extracted from leaves of soybean plants growing vegetatively. The leaves were homogenized in 4 volumes of buffer containing 100 mM hepes (pH 7.5), 1 mM sodium pyruvate, 0.5 mM magnesium chloride, 0.5 mM thiamine pyrophosphate, […], 10% glycerol, 5% PVPP, and 0.2% mercaptoethanol. The homogenate was filtered through cheese cloth and centrifuged at 20,000 g for 20 min. ALS was precipitated from the supernatant with ammonium sulfate. The enzyme was collected between 20 and 60% saturation by centrifugation at 20,000 g for 20 min. The pellet was resuspended in buffer containing 100 mM Hepes, 1 mM sodium pyruvate, and 0.5 mM magnesium chloride, and desalted on PD-10 columns (Pharmacia) equilibrated with the same buffer. ALS assays were carried out in a final volume of 0.5 mL at 30° C. The final reaction mixture contained 100 mM Hepes (pH 7.5), 1 mM magnesium chloride, 60 mM sodium pyruvate, 0.4 mM thiaminepyrophosphate, […], and various concentrations of chlorsulfuron. The assays were initiated with the addition of enzyme ([…]) and terminated with the addition of […] of 6N sulfuric acid. The acidified reaction mixture was heated to 60° C. for 15 min, after which 0.5 mL of 0.5% (W/V) creatine and 0.5 mL of 5% (W/V) napthol (freshly prepared in 2.5 N sodium hydroxide) were added. The reaction mixtures were heated for an additional 15 min at 60° C., and the absorbance was read at 525 nm. Data are expressed in terms of % control (minus Compound 1) activity and are the average of two replications. Fisher's least significant difference (LSD) value (at the 95% level of confidence) was calculated for each Compound 1 concentration to determine the significance of genotype mean differences.
# [13] = system: ALS of W23-10; assay: as above; assay type: biochemical, soybean; settings: W23-10, 10 ppm
# Description: as §5, §6
# [14] = system: ALS of W23-11; assay: as above; assay type: biochemical, soybean; settings: W23-11, 10 ppm
# Description: as §5, §6
# [15] = system: ALS of W4-4; assay: as above; assay type: biochemical, soybean; settings: W4-4, 10 ppm
# Description: as §5, §6
# [16] = system: ALS of W4-5; assay: as above; assay type: biochemical, soybean; settings: W4-5, 10 ppm
# Description: as §5, §6
# [17] = system: ALS of W4-6; assay: as above; assay type: biochemical, soybean; settings: W4-6, 10 ppm
# Description: as §5, §6
# [18] = system: ALS of W6-1; assay: as above; assay type: biochemical, soybean; settings: W6-1, 10 ppm
# Description: as §5, §6
# [19] = system: ALS of W6-2; assay: as above; assay type: biochemical, soybean; settings: W6-2, 10 ppm
# Description: as §5, §6
# [20] = system: ALS of W6-4; assay: as above; assay type: biochemical, soybean; settings: W6-4, 10 ppm
# Description: as §5, §6
# [21] = system: ALS of Williams; assay: as above; assay type: biochemical, soybean; settings: 10 ppm
# Description: as §5, §6
# [22] = system: tolerant tomato lines; settings: cited from earlier work
# [23] = system: original cultivar; settings: original tomato cultivar; cited from earlier work
smiles,measurement,setting,value
"COc1cc(OC)nc(NC(=O)NS(=O)(=O)c2cccc3c2S(=O)(=O)C(C)C3)n1 (single isomer, unassigned) [Compound 12, N-[[(4,6-dimethoxy-2-pyrimidinyl)amino]carbonyl]-2,3,-dihydro-2-methylbenzo [B] thiophene-7-sulfonamide, 1,1-dioxide]",formation of unifoliolate leaves and secondary roots,[1],could not
same,formation of unifoliolate leaves and secondary roots,"[2]; tolerant mutant plants, 100 ppb in nutrient solution, 10 days after planting",able to form both unifoliolate leaves and secondary roots
same,further development on prolonged exposure,"[2]; tolerant mutants, 100 ppb, 20 to 28 days",prevented further development
same,leaf formation,[3],allow unifoliolate (but not trifoliolate) formation
same,leaf and root development,[4],consistently stunt or inhibit leaf and root development
"CC(C)C1(C)N=C(c2nc3ccccc3cc2C(=O)O)NC1=O (stereo not shown) [Compound 9, 2-[4,5-dihydro-4-methyl-4-(1-methylethyl)-5-oxo-1H-imidazol-2-Yl]-3-quinolinecarboxylic acid]",pest or weed control at 250 g/ha,[5],8%
same,pest or weed control at 1000 g/ha,[5],13%
same,soybean crop injury (%) at 250 g/ha,"[6]; W17, 250 g/ha postemergence",0%
same,soybean crop injury (%) at 1000 g/ha,"[6]; W17, 1000 g/ha postemergence",8%
same,percent soybean crop injury at 250 g/ha,"[7]; W19, 250 g/ha postemergence",9%
same,percent soybean crop injury at 1000 g/ha,"[7]; W19, 1000 g/ha postemergence",9%
same,percent soybean injury at 250 g/ha,"[8]; W23, 250 g/ha postemergence",9%
same,percent soybean injury at 1000 g/ha,"[8]; W23, 1000 g/ha postemergence",13%
same,mean % injury to soybean at 250 g/ha,"[9]; W28, 250 g/ha postemergence",9%
same,mean % injury to soybean at 1000 g/ha,"[9]; W28, 1000 g/ha postemergence",15%
same,% crop injury at 250 g/ha,"[10]; W4, 250 g/ha postemergence",13%
same,% crop injury at 1000 g/ha,"[10]; W4, 1000 g/ha postemergence",13%
same,percent crop injury at 250 g/ha,"[11]; W20, 250 g/ha postemergence",5%
same,percent crop injury at 1000 g/ha,"[11]; W20, 1000 g/ha postemergence",15%
same,uninhibited ALS activity as % of control,[12],18.4 % of control
same,uninhibited ALS activity as % of control,[13],19.5 % of control
same,uninhibited ALS activity as % of control,[14],13.0 % of control
same,uninhibited ALS activity as % of control,[15],44.3 % of control
same,uninhibited ALS activity as % of control,[16],19.3 % of control
same,uninhibited ALS activity as % of control,[17],10.7 % of control
same,uninhibited ALS activity as % of control,[18],16.2 % of control
same,uninhibited ALS activity as % of control,[19],11.7 % of control
same,uninhibited ALS activity as % of control,[20],18.7 % of control
same,uninhibited ALS activity as % of control,[21],14.0 % of control
CN(C)C(=O)C(c1ccccc1)c1ccccc1 [diphenamid],reduction in seedling weight,[22],25%
same,reduction in seedling weight,[23],40%
